# Reference: PMC6749236, “Synthesis of Novel 2-(Het)arylpyrrolidine Derivatives and Evaluation of Their Anticancer and Anti-Biofilm Activity” (Molecules, 2019)
# Experiments:
# [1] = Water solubility (selection for parenteral administration); type: physicochemical
# M-Hela = assay: Cytotoxicity assay (Cytell Cell Imaging, DAPI/propidium iodide), cancer cell line; type: cell-based; details: Homo sapiens, M-HeLa, read-out: IC50 Cancer Cell Line M-Hela
# Chang liver cell line = assay: Cytotoxicity assay (Cytell Cell Imaging), normal cell line; type: cell-based; details: Homo sapiens, read-out: IC50 Normal Cell Line Chang Liver
# P388 murine leukemia = assay: In vivo anti-tumor activity, i.p. implanted leukemia; set-up: species or system BDF1 hybrid male mice; details: for ILS / MST ± SD / antitumor (anti-leukemic) activity, in words: days 1, 5, 9; for ILS / MST ± SD: P388; for Survival: day 60; for Survivors/Total: survivors on day 60; for antitumor (anti-leukemic) activity, in words: P388, dose range 18–83 mg/kg/day i.p.
# Method: Animals. In vivo experiments were performed using the BDF1 hybrid male mice of 22–24 g weight. The experimental animals were caged in a standard vivarium in 12 h light conditions with free access to food and water. All manipulations with the animals were performed in accordance with the solutions of the Commission on Bioethics of the Institute of Problems of Chemical Physics, Russian Academy of Sciences (IPCP RAS).
# Anti-tumor activity. The tumors were transplanted intraperitoneally (i.p.) in accordance with a standard procedure inoculum: 10^6 tumor cells in isotonic solution of NaCl, V = 0.2 cm^3 (leukemia P388). Original compounds were injected intraperitoneally as aqueous solution. Doses from 18 to 83 mg/kg/day and the mode of administration on days 1, 5, and 9 after transplantation were used. In each experiment, a single group of tumor-bearing animals not injected with the compounds served as the control group. Each group consisted of six mice. The animals were observed daily for survival for a minimum of 60 days. The efficacy of the therapy against leukemia (defined as increase in lifespan—ILS) was assessed as the percentage of the median survival time (MST) of the treated group (t) to that of the control group (c): ILS(%) = (MSTt/MSTc) × 100.
# Statistics. The experiments were carried out in triplicate. The data are presented in the form X ± SD (mean ± standard deviation). The significance of the differences between the groups was assessed using Student’s t-test. Values of p < 0.05 were considered statistically significant. The data were processed statistically using GraphPad Prism.
# M-Hela cells [2] = assay: Mitochondrial membrane potential, JC-10 flow cytometry; type: cell-based, human; details: IC50 concentration of 14.7 μM
# Method: Effects on the mitochondrial membrane potential (Δψm) by lead compounds. In confirmation of data on the course of apoptosis in cells along an external pathway not associated with dysfunctional mitochondria, the ability of the tested compounds to reduce the potential of the mitochondrial membrane (Δψm) in M-Hela culture cells was examined using the example of compound 6g. Studies were performed using flow cytometry methods using JC-10 reagent. In normal cells with a high potential of the mitochondrial membrane, the dye JC-10 forms aggregates (J-aggregate) near the mitochondrial membranes. When the membrane potential due to the stimulation of apoptosis falls, JC-10 is evenly distributed in the cell as a monomer (J-monomer). JC-10 units in normal cells have red fluorescence, and JC-10 monomers are green. The ratio between orange-red and green fluorescence can be used to assess the onset of apoptosis. […] The results obtained indicate that the mechanism of action of the studied compounds is not associated with the induction of apoptosis, which proceeds along the mitochondrial pathway.
# Flow Cytometry Assay. Mitochondrial membrane potential. […] After the cells were rinsed three times and suspended in PBS, the JC-10 fluorescence was observed by flow cytometry (Guava easy Cyte 8HT, Guava Technologies Inc., Hayward, CA, USA).
# M-Hela cells [3] = assay: Induction of apoptotic effects (annexin V-Alexa Fluor 647, Cytell); type: cell-based, human; details: 24 hours of treatment, concentration corresponding to the IC50 value (14.7 μM)
# Method: Induction of Apoptotic Effects by test compounds. Cell Culture. M-Hela cells at 1 × 10^6 cells/well in a final volume of 2 mL were seeded into six-well plates. After 24 hours of incubation, a solution of the test compound 6g was added to the wells at the concentration studied.
# Cytell Cell Imaging System Assay. M-Hela cells were plated into a 24-well plate (Eppendorf) at a concentration of 1 × 10^6 cells/mL, 500 µL of medium per well, and cultured in a CO2 incubator at 37 °C. Twenty-four hours after seeding the cells into wells the compound was added at a preset dilution, 500 µL to each well. […] Evaluation of apoptotic effects was performed with the help of multifunctional system Cytell Cell Imaging, using Cell Viability BioApp and Automated Imaging BioApp applications. The annexin V-Alexa Fluor 647 apoptosis detection kit, DAPI and propidium iodide purchased from Sigma.
# Statistical analysis. The experiments were repeated three times. The cytometric results were analyzed by the Cytell Cell Imaging multifunctional system using the Cell Viability BioApp and Apoptosis BioApp application. The data in the tables and graphs are given as the mean ± standard error.
# [4] = tested on: early apoptosis markers (Caspase-8, Caspase-9) in M-Hela cell lysates; assay: Multiplex analysis of early apoptosis markers (MILLIPLEX MAP 7-plex, Luminex); type: cell-based, human; details: 24 h, IC50 concentration of 14.7 µM
# Method: Multiplex analysis of early apoptosis markers. Next, using the MILLIPLEX® MAP 7-plex Early Phase Apoptosis Signaling kit, seven markers of early apoptosis of JNK, Bad, Bcl-2, Akt, Caspase-9, p53, and Caspase-8 were detected in M-Hela cell lysates. The median fluorescence intensity (MFI) was measured using the Luminex® system. This assay is a quick and convenient alternative to Western blot and immunoprecipitation.
# Multiplex analysis of early apoptosis markers. M-Hela cells were incubated for 24 hours with the test substance. Cells were lysed in MILLIPLEX® MAP Lysis buffer containing protease inhibitors. Twenty micrograms of total protein of each lysate diluted in MILLIPLEX® MAP Assay Buffer 2 was analyzed according to the analysis protocol (the lysate was incubated at 4 °C overnight). The mean fluorescence intensity (MFI) was detected using the Luminex® system, MERCK, USA.
Compound,"solubility in water, in words [1]",IC50 (M-Hela),IC50 (Chang liver cell line),ILS (P388 murine leukemia; 18 mg/kg/day i.p.),MST ± SD (P388 murine leukemia; 18 mg/kg/day i.p.),Survival (P388 murine leukemia; 18 mg/kg/day),ILS (P388 murine leukemia; 26 mg/kg/day i.p.),MST ± SD (P388 murine leukemia; 26 mg/kg/day i.p.),Survival (P388 murine leukemia; 26 mg/kg/day),ILS (P388 murine leukemia; 40 mg/kg/day i.p.),MST ± SD (P388 murine leukemia; 40 mg/kg/day i.p.),Survival (P388 murine leukemia; 40 mg/kg/day),ILS (P388 murine leukemia; 55 mg/kg/day i.p.),MST ± SD (P388 murine leukemia; 55 mg/kg/day i.p.),Survival (P388 murine leukemia; 55 mg/kg/day),ILS (P388 murine leukemia; 83 mg/kg/day i.p.),MST ± SD (P388 murine leukemia; 83 mg/kg/day i.p.),Survival (P388 murine leukemia; 83 mg/kg/day),Survivors/Total (P388 murine leukemia; 83 mg/kg/day),"antitumor (anti-leukemic) activity, in words (P388 murine leukemia)",also measured
"O=C(Nc1ccccc1)N1CCCC1c1cc2c(cc1O)OCO2 (centres unmarked) [5b, 2-(6-Hydroxybenzo[d][1,3]dioxol-5-yl)-N-phenylpyrrolidine-1-carboxamide]",water-soluble,> 100 µM,> 100 µM,177%,27.7 ± 10.3 days,33%,165%,26.5 ± 10.6 days,33%,160%,26.0 ± 10.8 days,33%,80%,18.0 ± 8.4 days,17%,0%,9.7 ± 0.2 days,0%,0/6,pronounced anti-leukemic activity,–
"CN(C)CCNC(=O)N1CCCC1c1cc2c(cc1O)OCO2.O=C(O)C(F)(F)F (centres unmarked) [5h, 2-(2-(6-Hydroxybenzo[d][1,3]dioxol-5-yl)pyrrolidine-1-carboxamido)-N,N-dimethylethan-1-aminium 2,2,2-trifluoroacetate]",water-soluble,> 100 µM,> 100 µM,276%,35.7 ± 10.9 days,50%,95%,18.5 ± 8.3 days,17%,447%,52.0 ± 8.0 days,83%,300%,38.0 ± 9.9 days,50%,100%,19.0 ± 8.2 days,17%,1/6,pronounced anti-leukemic activity,Survivors/Total (P388 murine leukemia; 18 mg/kg/day): 3/6; Survivors/Total (P388 murine leukemia; 26 mg/kg/day): 1/6; Survivors/Total (P388 murine leukemia; 40 mg/kg/day): 5/6; Survivors/Total (P388 murine leukemia; 55 mg/kg/day): 3/6
"O=C(NC1CCCCC1)N1CCCC1c1ccc(Nc2c([N+](=O)[O-])c(Cl)cc3c2no[n+]3[O-])cc1O (centres unmarked) [6g, 6-Chloro-4-((4-(1-(cyclohexylcarbamoyl)pyrrolidin-2-yl)-3-hydroxyphenyl)amino)-5-nitrobenzo[c][1,2,5]oxadiazole 1-oxide]",–,14.7 ± 0.9 µM,46 ± 2.7 µM,–,–,–,–,–,–,–,–,–,–,–,–,–,–,–,–,–,decrease in mitochondrial membrane potential (Δψm) (M-Hela cells [2]): No decrease; M-Hela cells in which apoptosis was induced (M-Hela cells [3]): 25%; melting point: 170 to 175 °C (dec.); fluorescence intensity of Caspase-8 versus control [4]: two times higher; fluorescence intensity of Caspase-9 versus control [4]: at the control level
"CN(C)CCNC(=O)N1CCCC1c1ccc(Nc2c([N+](=O)[O-])c(Cl)cc3c2no[n+]3[O-])cc1O.O=C(O)C(F)(F)F (centres unmarked) [6h, 6-Chloro-4-((4-(1-((2-(dimethylammonio)ethyl)carbamoyl)pyrrolidin-2-yl)-3-hydroxyphenyl)amino)-5-nitrobenzo[c][1,2,5]oxadiazole 1-oxide 2,2,2-trifluoroacetate]",water-soluble,100 ± 8.6 µM,> 100 µM,37%,13.8 ± 0.6 days,0%,34%,13.5 ± 0.5 days,0%,27%,12.8 ± 0.7 days,0%,39%,–,0%,11%,11.2 ± 1.6 days,0%,0/6,did not show antitumor properties,Survivors/Total (P388 murine leukemia; 18 mg/kg/day): 0/6; Survivors/Total (P388 murine leukemia; 26 mg/kg/day): 0/6; Survivors/Total (P388 murine leukemia; 40 mg/kg/day): 0/6; Survivors/Total (P388 murine leukemia; 55 mg/kg/day): 0/6
"Cc1cc(O)c(C2CCCN2C(=O)NCCN(C)C)c(=O)o1.O=C(O)C(F)(F)F (centres unmarked) [7h, 2-(2-(4-Hydroxy-6-methyl-2-oxo-2H-pyran-3-yl)pyrrolidine-1-carboxamido)-N,N-dimethylethan-1-aminium 2,2,2-trifluoroacetate]",water-soluble,> 100 µM,> 100 µM,0%,11.0 ± 0.6 days,0%,0%,10.3 ± 0.2 days,0%,0%,10.2 ± 0.2 days,0%,0%,10.7 ± 0.2 days,0%,0%,10.3 ± 0.2 days,0%,0/6,did not show antitumor properties,Survivors/Total (P388 murine leukemia; 18 mg/kg/day): 0/6; Survivors/Total (P388 murine leukemia; 26 mg/kg/day): 0/6; Survivors/Total (P388 murine leukemia; 40 mg/kg/day): 0/6; Survivors/Total (P388 murine leukemia; 55 mg/kg/day): 0/6
